Laboratory results as given in publication PMC4901321, “Screening of saponins and sapogenins from Medicago species as potential PPARγ agonists and X-ray structure of the complex PPARγ/caulophyllogenin” (Scientific Reports, 2016).
“Also recorded” adds a separate entry of the source. Like-named read-outs stand apart in the source and are kept apart here.

How the values were obtained:
PPARγ LBD [1] = molecular target: T1, PPARγ LBD (Homo sapiens, UniProt P37231); assay: Isothermal titration calorimetry; type: binding
T1 construct: PPARγ LBD was expressed as N-terminal His-tagged proteins using a pET28 vector; His tag (N, cleaved yes); made in house; host or cells: E. coli BL21 DE3
T1 sequence (P37231 238-503 limits assumed): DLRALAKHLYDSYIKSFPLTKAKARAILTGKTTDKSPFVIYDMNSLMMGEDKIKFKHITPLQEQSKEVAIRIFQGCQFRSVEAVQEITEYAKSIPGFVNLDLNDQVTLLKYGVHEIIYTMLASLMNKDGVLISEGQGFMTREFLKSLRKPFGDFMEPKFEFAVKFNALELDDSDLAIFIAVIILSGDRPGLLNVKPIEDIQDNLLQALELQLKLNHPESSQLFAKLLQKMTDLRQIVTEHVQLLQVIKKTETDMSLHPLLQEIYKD
Experimental: ITC experiments were performed at 22 °C by using a ITC200 microcalorimeter (MicroCal, Inc., Northampton, MA, USA). […] DMSO was added to the protein solution at the same percentage of the ligand solution (2%) for the experiment with SAP19. The protein solution (50 μM) was placed in the sample cell, and ligand solution (500 μM) was loaded into the syringe injector (PPARγ 40 μM and the ligand 400 μM for the experiment with 13-HODE) . The titrations involved 19 injections of 2 μL each at 150 s intervals. A reference titration of ligand into buffer was used to correct for heats of dilution. Thermodynamic data was processed with Origin 7.0 software (MicroCal). Fitting the isotherms with one-site binding model yealded the values of the association constant (Ka).

PPARγ LBD [2] = molecular target: T1, PPARγ LBD; assay: Surface plasmon resonance, PPARγ receptor/saponin or sapogenin interactions; type: binding; conditions: for Kd: koff/kon; for affinity to the nuclear receptor: in words
Experimental: PPARγ LBD was expressed as N-terminal His-tagged proteins using a pET28 vector and then purified as previously described[40]. Briefly, freshly transformed E. coli BL21 DE3 were grown in LB medium with 30 μg of kanamycin/mL at 310 K to an OD of 0.6. […] Cells were harvested and resuspended in a 20 mL/liter culture of Buffer A (20 mM Tris, 150 mM NaCl, 10% glycerol, 1 mM Tris 2-carboxyethylphosphine HCl (TCEP), pH 8) in the presence of protease inhibitors (Complete Mini EDTA-free; Roche Applied Science). Cells were sonicated, and the soluble fraction was isolated by centrifugation (35,000 × g for 45 min). The supernatant was loaded onto a Ni^2+ -nitrilotriacetic acid column (GE Healthcare) and eluted with a gradient of imidazole 0–300 mM in Buffer A (batch method). The pure protein was identified by SDS PAGE. The protein was then dialyzed over buffer A to remove imidazole, and it was cleaved with thrombin protease (GE Healthcare) (10 units/mg) at room temperature for 2 h. The digested mixture was reloaded onto a Ni^2+ -nitriloacetic acid column to remove His tag and the undigested protein. The flow-through was loaded onto a Q-Sepharose HP column (GE Healthcare) and eluted with a gradient of NaCl 0–500 mM in Buffer B (20 mM Tris, 10% glycerol, 1 mM TCEP, pH 8) with a BioLogic DuoFlow FPLC system (Bio-Rad Laboratories, Italy). Finally, the protein was purified by gel-filtration chromatography on a HiLoad Superdex 75 column (GE Healthcare) and eluted with Buffer C (20 mM Tris, 1 mM TCEP, 0.5 mM EDTA, pH 8). The protein was then concentrated at 8 mg/mL using Amicon centrifugal concentrators with a 10 kDa cutoff membrane (Millipore, USA). Part of the protein was used for SPR experiments.
Surface plasmon resonance analyses were performed by using Pioneer AE optical biosensor equipped with COOH5 chips (SensiQ). PPARγ surfaces were prepared by using standard amine-coupling procedures[45] and HBS (Hepes-buffered saline: 20 mM Hepes, 150 mM sodium chloride, 0.005% P20, pH 7.4) as the running buffer. Flow cells were activated for 7 min by injecting 140 μL of 50 mM N-hydroxysuccinimide (NHS):200 mM ethyl-3(3-dimethylamino) propyl carbodiimide (EDC). Fifty μL of a 0.25 mg/mL PPARγ solution (in 10 mM sodium acetate, pH 5.0) were injected for 5 min at 10 μL/min on channels 1 and 3 (channel 2 was used as ref. [3], for a duplicate experiment), followed by a 70-μL injection of ethanolamine to block any remaining activated groups on the surface. […] The screening of the analytes (saponins and sapogenins) was performed using HBS without P20, with 1 mM DTT and 2% DMSO. To collect detailed kinetic data the OneStep[46][47][48] protocol was used, injecting the analytes at a flow rate of 50 μL/min and at the concentration of 100 μM (50 μM for 14 and 15) over the three channels at 20 °C (association phase of 180 s). Five buffer blanks were injected for double referencing . […] A DMSO calibration plot was constructed (buffer sample containing 1–3% (vol/vol) DMSO) to correct for bulk refractive index shifts[49]. Data were collected at a rate of 20 Hz. All sensorgrams were processed by using double referencing[50]. First, the responses from the reference surface (channel 2) were subtracted from the binding responses collected over the reaction surfaces to correct for bulk refractive index changes.

HepG2 cells = assay: MTT assay for cell viability; type: cell-based, human; conditions: for IC50: read-out: IC50 (concentration that reduces the cell viability by 50%)
Experimental: Human hepatocellular liver carcinoma cell line HepG2 (Interlab Cell Line Collection, Genoa, Italy) was cultured in Minimum Essential Medium (MEM) containing 10% heat-inactivated fetal bovine serum, 100 U·mL^−1 of penicillin G, and 100 μg·mL^−1 of streptomycin sulfate at 37 °C in a humidified atmosphere of 5% CO2.
Cell viability was measured using the MTT assay. HepG2 cells were seeded at a density of 1·10^5 cells/well into 96-well flat bottom culture plates containing test compounds (ranging from 200 nM to 100 μM final concentration), in a final volume of 100 μL. […] Control wells lacked inhibitor. After 24 h of incubation at 37 °C in a 5% CO2 atmosphere, 3-(4,5-dimethylthiazole-2-yl)-2,5-diphenyltetrazolium bromide (MTT, 5 mg/mL stock solution) was added to a final concentration of 0.5 mg/mL. To control for background absorbance, six wells of cells were lysed by adding Triton X-100 (0.1% v/v final concentration) immediately prior to the addition of MTT reagent. After incubation under the same conditions for further 3–4 h, the culture medium was removed, the insoluble product dissolved by the addition of 100 μL of solvent (50% DMSO, 50% EtOH v/v), and the absorbance of the well was measured at 570 nm using a PERKIN–ELMER Victor V^3 plate reader. Cell growth inhibition was then calculated using the following Equation,
where V% is the percentage of cell viability, A is the absorbance of treated cultures, Ab is the absorbance of background control, and Ac is the absorbance of control cultures.

PPARγ [3] = system: PPARγ; set-up: method as in PMID 25487878; conditions: cited from earlier work
PPARγ [4] = molecular target: T2, PPARγ (Homo sapiens, UniProt P37231); assay: Displacement experiments against rosiglitazone (antagonist behavior, transactivation); type: cell-based
T2 construct: expressed in transfected cells; host or cells: HepG2
T2 sequence (P37231 238-503 limits assumed): T1 sequence (P37231 238-503 limits assumed)
Experimental: The antagonist behavior of the above compounds was also evaluated in displacement experiments against rosiglitazone.
For transactivation assays, 1·10^5 cells per well were seeded in a 96-well plate and transfected after 24 h with K2 Transfection System (Biontex Laboratories GmbH), according to the manufacturer’s protocol using 0.20 μg/well of DNA. Cells were transfected with expression plasmids encoding the fusion protein Gal4-PPARα-LBD or Gal4-PPARγ-LBD, pGal5TKpGL3, and pCMVβgal to normalize the transfection efficacy. 24 h after transfection, medium was replaced with fresh complete growth medium supplemented with test compounds (ranging from 200 nM to 100 μM), reference compounds Wy-14,643 (10 μM) and rosiglitazone (2 μM), or DMSO 0.1%. After further 24 h of incubation cells were lysed and luciferase activity in cell extracts was determined by a luminometer (VICTOR^3 V Multilabel Plate Reader, PerkinElmer, Monza, Italy) and normalized for β-galactosidase activity. Fold induction activity was calculated and plotted using GraphPad Prism5 software.

[5] = ITC fit, OneSites model, Supplementary Fig. S3
[6] = SPR, 20 °C, 1:1 model, for 2:1 model fits the first value (high affinity site), error in parentheses

With `CCCCC[C@H](O)/C=C/C=C\CCCCCCCC(=O)O` [13-(S)-HODE] the “K (association constant)” value (PPARγ LBD [1]; [5]) was 106000 M⁻¹, the ΔH (PPARγ LBD [1]; [5]) was -2.206 kcal/mol and the ΔS (PPARγ LBD [1]; [5]) was 15.5 cal/mol/deg. For the same compound, the ΔH (PPARγ LBD [1]; ITC, 22 °C) was -2.21 kcal/mol, the “−TΔS” value (PPARγ LBD [1]; ITC, 22 °C) was -4.56 kcal/mol and the Kd (PPARγ LBD [1]; ITC, 22 °C, one-site model) was 9.4 µM.

For `C[C@@H]1O[C@@H](O[C@H]2[C@H](O[C@H]3[C@H](O[C@H]4CC[C@@]5(C)[C@@H](CC[C@]6(C)[C@@H]5CC=C5[C@@H]7CC(C)(C)C[C@@H](O)[C@]7(C)CC[C@]56C)[C@@]4(C)CO)O[C@H](C(=O)O)[C@@H](O)[C@@H]3O)O[C@H](CO)[C@H](O)[C@@H]2O)[C@H](O)[C@H](O)[C@H]1O` [SAP17, soyasaponin I], the Koff (PPARγ LBD [2]) was 1.68 s⁻¹, the Kd (PPARγ LBD [2]; Kd, SPR, 1:1 model, for 2:1 model fits the first value (high affinity site)) was 32.5 µM and the cytotoxicity (HepG2 cells; HepG2, concentrations up to 100 μM) was “did not show cytotoxicity; also recorded: did not show any cytotoxic activity”. For the same compound, the IC50 (HepG2 cells; Homo sapiens, HepG2, 24 h) was greater than 100 µM.

With `CC1(C)CC[C@]2(C(=O)O)CC[C@]3(C)C(=CC[C@@H]4[C@@]5(C)CC[C@H](O)[C@@](C)(CO)[C@@H]5CC[C@]43C)[C@@H]2C1` [SAP20, hederagenin] the “affinity to the nuclear receptor” value (PPARγ LBD [2]; SPR) was “didn’t show affinity” and the Kd (PPARγ LBD [2]; SPR, 1:1 model, for 2:1 model fits the first value (high affinity site), read-out: Kd) was greater than 1000 µM.

In the case of `CC1(C)CC[C@]2(C(=O)O)CC[C@]3(C)C(=CCC4[C@@]5(C)C[C@H](O)[C@H](O)[C@@](C)(CO)C5CC[C@]43C)C2C1` (stereo partly drawn) [SAP21, bayogenin], the “affinity to the nuclear receptor” value (PPARγ LBD [2]; SPR) is reported as “didn’t show affinity”.

With `CC1(C)C[C@@H](O)[C@]2(C)CC[C@]3(C)C(=CC[C@@H]4[C@@]5(C)CC[C@H](O)[C@](C)(CO)[C@@H]5CC[C@]43C)[C@@H]2C1` [SAP24, soyasapogenol B] the “affinity to the nuclear receptor” value (PPARγ LBD [2]; SPR) was “didn’t show affinity”.

For `CC(C)=CCC[C@](C)(O)[C@H]1CC[C@]2(C)[C@@H]1[C@H](O)C[C@@H]1[C@@]3(C)CC[C@H](O)C(C)(C)[C@@H]3[C@@H](O)C[C@]12C` [protopanaxatriol], the “activity towards PPARγ” value (PPARγ [3]) is listed as “antagonist activity”.

For echinocystic acid [SAP18], the Koff (PPARγ LBD [2]; SPR, 2:1 molecular interaction model, second value in cell (second site)) was 0.715(0.002) s^−1, the Koff (PPARγ LBD [2]; [6]) was 0.0014 s⁻¹ and the Kon (PPARγ LBD [2]; [6]) was 144.8(0.2) M^−1s^−1. For the same compound, the IC50 (HepG2 cells; HepG2, MTT, 24 h) was 4.1 ± 0.4 µM, the “reduction of the effects of rosiglitazone” value (PPARγ [4]; at 5 μM) was 40% and the “antagonist behavior towards PPARγ” value (PPARγ [4]; in words) was “antagonist activity”.
